Assay results as given in US20040037837A1 (priority 2000, published 2004).

Tests used:
[1] = system: autologous monocyte-derived macrophages infected with M. bovis BCG, M. tuberculosis or rVV expressing Ag85A; format: cell-based, human; conditions: label = peptide used to generate the STCL (or pulsed control peptide)
[2] = system: THP-1 cells pulsed with peptide; experiment: 51Cr release cytotoxicity assay of peptide specific CD8+ T cells against peptide pulsed THP-1 cells; format: cell-based, human; conditions: 50:1 E:T ratio; label = peptide pulsed on targets; STCL after 2 weeks of stimulation
[3] = system: Uncultured PBMCs from HLA-A2 donors; format: cell-based, human
[4] = system: HLA-A2 transgenic C57B1/6 mice; format: in vivo; conditions: subcutaneous peptides in IFA

Row | Sequence | recognition and lysis of M. bovis BCG, M. tuberculosis and rVV85A infected macrophages by peptide specific CTLs [1] | specific lysis of peptide pulsed THP-1 cells by P48-56 stimulated CD8^+ T cells [2] [%] | specific lysis of peptide pulsed THP-1 cells by P242-250 reactive CD8^+ T cells [2] | mean number of IFN-γ sfc's enumerated from 5×10^5 PBMCs [3] | peptide specific IFNγ producing T cells in the spleens ([4]; 7 days post second boost) | recognition of peptide with feeder cells from wild type C57B1/6 mice ([4]; 7 days post first boost, lymph node) | IFNγ response to peptide in the lymph node ([4]; 7 days post first boost, autologous feeders)
1 | GLPVEYLQV (listed as Mycobacterium tuberculosis) [P48-56] | able to recognise and lyse | 76 | no significant lysis | 27 | resulted in a P48-56 response | – | –
2 | KLIANNTRV (listed as Mycobacterium tuberculosis) [P242-250] | able to recognise and lyse | – | 79% | 22 | – | not recognised | a response to P242-250 was seen
